Measurements from patent publication US10155798B2, “Anti-obesity compounds derived from neuromedin U” (The Regents of the University of California, priority 2013, dated 2018).
Where a SMILES comes first, the peptide text is derived from it. [ ]: non-standard residue; d: D form. The star is where a group is joined. Oic = O=C(O)[C@@H]1C[C@@H]2CCCC[C@@H]2N1; Palmitoyl = CCCCCCCCCCCCCCCC(=O)*; Aib = CC(C)(N)C(=O)O; Ahx = NCCCCCC(=O)O

The compounds below were run against T1, NMUR2 (neuromedin U 2 receptor) (Homo sapiens, UniProt Q9GZQ4) (assay: Calcium mobilization assay, HEK-NMU2 cells). Conditions: HEK293 cells expressing NMU2 receptor, NA = not active.
T1 construct: expressed in transfected cells; host or cells: HEK293 (HEK-NMU2)
T1 sequence (Q9GZQ4 whole entry): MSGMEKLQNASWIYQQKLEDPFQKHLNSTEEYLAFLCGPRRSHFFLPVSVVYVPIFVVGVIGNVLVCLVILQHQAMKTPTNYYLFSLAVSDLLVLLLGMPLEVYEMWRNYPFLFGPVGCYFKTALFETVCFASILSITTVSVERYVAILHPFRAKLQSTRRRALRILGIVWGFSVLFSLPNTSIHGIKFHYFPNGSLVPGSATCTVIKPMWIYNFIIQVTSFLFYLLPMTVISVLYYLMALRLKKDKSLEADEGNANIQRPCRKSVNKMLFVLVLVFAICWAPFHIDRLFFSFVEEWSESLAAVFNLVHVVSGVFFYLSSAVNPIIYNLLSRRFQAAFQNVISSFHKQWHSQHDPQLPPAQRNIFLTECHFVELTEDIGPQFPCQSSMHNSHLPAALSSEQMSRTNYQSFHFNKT
Format: cell-based
Method: To test whether neuromedin U can be modified/derivatized to yield truncated bioactive compound(s) that may be useful as therapeutics, we synthesized a small library (25 peptides) of hNMU analogs utilizing various stabilization protocols, including: cyclization, lipidation, introduction of α,α-disubstituted and N-methylated amino acids, retro-inverso-approach, and combination of such (see Table 1). Subsequently all analogues were tested against human neuromedin U receptors (NMUR1 and NMUR2) in calcium mobilization assay (collaboration with Dr Gary Willars, University of Leicester, UK).
HEK293 cells expressing either the neuromedin U 1 receptor or neuromedin U 2 receptor (HEK-NMU1 and HEK-NMU2 respectively) were grown to approximately 90% confluence in ELISA strip plates (96-well format) pre-coated with poly-D-lysine (0.1% w/v) and loaded for 45 min at 37° C. with 2 iM fluo-4-AM in Krebs'-HEPES buffer with bovine serum albumin (KHB-BSA; composition: 10 mM HEPES; 4.2 mM NaHCO3; 11.7 mM D-glucose; 1.18 mM MgSO4.7H2O; 1.18 mM KH2PO4; 4.69 mM KCl; 118 mM NaCl; 1.3 mM CaCl2.2H2O; 0.1% (w/v) BSA; pH 7.4). Monolayers were then washed and equilibrated for 5 min at 37° C. in 100 il KHB-BSA for subsequent recording of fluorescence as an index of intracellular [Ca^2+] ([Ca^2+]i) using a microplate reader (NOVOstar; BMG LABTECH, Aylesbury, U.K.). Briefly, 20 μl of KHB-BSA, with or without ligand, was added into the well (200 μl/s) and fluorescence determined at 0.5 s intervals by excitation at 485 nm and collection of emitted light at 520 nm. Changes in fluorescence above basal levels (before ligand addition) were determined. […] Fmax was obtained by removal of buffer and addition of KHB-BSA buffer containing 4 mM [Ca^2+] and ionomycin (2 μM) to representative wells and the fluorescence measured for 10 min. Fmin was then derived by replacing buffer with Ca^2+-free KHB-BSA buffer containing 2 mM EGTA and fluorescence measured for 10 min. For the determination of concentration-response relationships, the maximal change in [Ca^2+]i was calculated following ligand addition. Concentration-response curves were then fitted using a four-parameter logistic equation to determine EC50 values (GraphPad Software Inc., Calif.).

SMILES | EC50 [nM]
CC(=O)N[C@@H](Cc1ccccc1)C(=O)N[C@@H](CC(C)C)C(=O)N[C@@H](Cc1ccccc1)C(=O)N[C@@H](CCCNC(=N)N)C(=O)N1CCC[C@H]1C(=O)N[C@@H](CCCNC(=N)N)C(=O)N[C@@H](CC(N)=O)C(N)=O [Peptide M1, Ac-FL-Phe-Arg-Pro-R-Asn] (Ac-FLFRPRN-NH2) | 0.6 ± 0.19
CC(C)C[C@H](NC(=O)[C@H](Cc1ccccc1)NC(=O)C(C)(C)N)C(=O)N[C@@H](Cc1ccccc1)C(=O)N[C@@H](CCCNC(=N)N)C(=O)N1CCC[C@H]1C(=O)N[C@@H](CCCNC(=N)N)C(=O)N[C@@H](CC(N)=O)C(N)=O [Peptide M2, Aib-FL-Phe-Arg-Pro-R-Asn] (H-[Aib]FLFRPRN-NH2) | 0.21 ± 0.07
CCCCCCCCCCCCCCCC(=O)NC(C)(C)C(=O)N[C@@H](Cc1ccccc1)C(=O)N[C@@H](CC(C)C)C(=O)N[C@@H](Cc1ccccc1)C(=O)N[C@@H](CCCNC(=N)N)C(=O)N1CCC[C@H]1C(=O)N[C@@H](CCCNC(=N)N)C(=O)N[C@@H](CC(N)=O)C(N)=O [Peptide M3, Pal-Aib-FL-Phe-Arg-Pro-R-Asn] (Palmitoyl-[Aib]FLFRPRN-NH2) | 170 ± 34.9
CC(C)C[C@H](NC(=O)[C@H](Cc1ccccc1)NC(=O)C(C)(C)N)C(=O)N[C@@H](Cc1ccccc1)C(=O)N[C@@H](CCCNC(=N)N)C(=O)N1CCC[C@H]1C(=O)N[C@@H](CCCNC(=N)N)C(=O)N[C@@H](CC(N)=O)C(=O)NC(C)(C)C(N)=O [Peptide M5, Aib-FL-Phe-Arg-Pro-R-Asn-Aib] (H-[Aib]FLFRPRN[Aib]-NH2) | 50.1 ± 16.2
CC(C)C[C@H](NC(=O)[C@H](Cc1ccccc1)NC(=O)[C@H](Cc1ccc(O)cc1)NC(=O)CNC(=O)[C@H](CCCNC(=N)N)NC(=O)[C@H](CO)NC(=O)[C@H](CCC(N)=O)NC(=O)[C@H](CO)NC(=O)[C@H](C)NC(=O)[C@H](Cc1ccccc1)NC(=O)[C@@H]1CCCN1C(=O)[C@H](CO)NC(=O)[C@H](CCC(N)=O)NC(=O)[C@H](Cc1ccccc1)NC(=O)[C@H](CCC(=O)O)NC(=O)[C@H](CCC(=O)O)NC(=O)[C@H](CC(=O)O)NC(=O)[C@@H](NC(=O)[C@H](CCCNC(=N)N)NC(=O)[C@@H](N)Cc1ccccc1)C(C)C)C(=O)N[C@@H](Cc1ccccc1)C(=O)N[C@@H](CCCNC(=N)N)C(=O)N1CCC[C@H]1C(=O)N[C@@H](CCCNC(=N)N)C(=O)N[C@@H](CC(N)=O)C(N)=O [hNMU, FRVDEEFQSPFASQSRGY-FL-Phe-Arg-Pro-R-Asn, reference compound] (H-FRVDEEFQSPFASQSRGYFLFRPRN-NH2) | 0.49 ± 0.13

The remaining lines, values ahead:

EC50 [nM] | SMILES
708 ± 171 | CC(C)C[C@H](NC(=O)[C@H](Cc1ccccc1)NC(=O)CCCCCNC(=O)[C@@H](N)CS)C(=O)N[C@@H](Cc1ccccc1)C(=O)N[C@@H](CCCNC(=N)N)C(=O)N1[C@H](C(=O)N[C@@H](CCCNC(=N)N)C(=O)N[C@@H](CC(N)=O)C(=O)NCCCCCC(=O)N[C@@H](CS)C(N)=O)C[C@@H]2CCCC[C@@H]21 [NM9, C-Ahx-FL-Phe-Arg-Oic-R-Asn-Ahx-C] (H-C[Ahx]FLFR[Oic]RN[Ahx]C-NH2)
240 ± 35.7 | CC(C)C[C@H](NC(=O)[C@H](Cc1ccccc1)NC(=O)CCCCCNC(=O)[C@@H](N)CS)C(=O)N[C@@H](Cc1ccccc1)C(=O)N[C@@H](CCCNC(=N)N)C(=O)N1CCC[C@H]1C(=O)N[C@@H](CCCNC(=N)N)C(=O)N[C@@H](CC(N)=O)C(=O)NCCCCCC(=O)N[C@@H](CS)C(N)=O [Peptide M8, C-Ahx-FL-Phe-Arg-Pro-R-Asn-Ahx-C] (H-C[Ahx]FLFRPRN[Ahx]C-NH2)
